The target of this experiment is RAF proto-oncogene serine/threonine-protein kinase (Homo sapiens, UniProt P04049). The experiment in a line: Biochemical Assay: Assays for biochemical and cell based activity are known in the art, for example, as described in PCT publication WO 2007/002433, the disclosure of which is hereby incorporated by reference as it relates to such assays. For example, the biochemical activity IC50 values are determined with respect to inhibition of B-Raf kinase activity, c-Raf-1 kinase activity, or B-Raf V600E kinase activity, where inhibition of phosphorylation of a peptide substrate is measured as a function of compound concentration. Compounds to be tested are diluted in dimethyl sulfoxide to a concentration of 0.1 mM. These are serially diluted 15 μL into 30 μL of dimethyl sulfoxide seven times in 96 well plates for a total of 8 dilution points, and for each dilution point 1 μL is added to a well of an assay plate. Plates are prepared such that each well in a 384 well plate contains 1 μL of compound in 10 μL volume with 0.1 ng Raf enzyme (i.e. any of B-Raf, c-Raf-1 or B-Raf V600E, Upstate Biotechnology or prepared by methods known to one of skill in the art), 50 mM HEPES, pH 7.0, 50 mM NaCl, 2 mM MgCl2, 1 mM MnCl2, 0.01% Tween-20, 1 mM DTT, and 100 nM biotin-MEK1 as substrate. The reaction is started with addition of 10 μL of 200 μM ATP (i.e. final 100 μM ATP). […].
RAF proto-oncogene serine/threonine-protein kinase, sequence (P04049 whole entry): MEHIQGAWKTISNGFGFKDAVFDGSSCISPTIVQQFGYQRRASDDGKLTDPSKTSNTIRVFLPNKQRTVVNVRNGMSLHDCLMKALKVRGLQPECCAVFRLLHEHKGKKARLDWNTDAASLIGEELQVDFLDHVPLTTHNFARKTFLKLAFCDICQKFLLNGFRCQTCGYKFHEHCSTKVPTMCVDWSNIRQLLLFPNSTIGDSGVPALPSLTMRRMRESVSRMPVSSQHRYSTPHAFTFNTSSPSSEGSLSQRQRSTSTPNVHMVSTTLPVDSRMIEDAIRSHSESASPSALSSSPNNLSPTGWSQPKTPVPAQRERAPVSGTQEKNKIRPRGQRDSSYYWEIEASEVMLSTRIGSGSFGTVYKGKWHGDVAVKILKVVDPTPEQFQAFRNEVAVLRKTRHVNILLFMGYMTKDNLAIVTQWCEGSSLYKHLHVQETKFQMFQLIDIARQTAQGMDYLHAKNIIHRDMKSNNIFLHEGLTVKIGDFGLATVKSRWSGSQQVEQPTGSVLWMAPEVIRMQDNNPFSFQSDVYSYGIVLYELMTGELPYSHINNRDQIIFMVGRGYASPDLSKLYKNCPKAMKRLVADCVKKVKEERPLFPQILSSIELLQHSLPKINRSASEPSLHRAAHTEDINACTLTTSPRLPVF

For `CCCS(=O)(=O)Nc1ccc(F)c(C(=O)c2c[nH]c3ncnc(Nc4ccccc4)c23)c1F`, the IC50 was below 100 nM.

The values above are taken from ChEMBL document CHEMBL5726113, “Compounds and methods for kinase modulation, and indications therefor” (2017).
